Reference: patent US7585460B2, “Method for inhibiting the biological acidification of water in contact with materials containing sulfur” (ENI S.p.A., priority 2003, dated 2009)

Key:
[1] = system: Thiobacilli (consortium); assay: Effect of different salts on acidification, TM medium with sulfur powder and inoculated mixed culture (Example 7); type: cell-based, Thiobacillus
Procedure: The verification is aimed at discovering the effects deriving from the presence of different salts at varying concentrations on the same consortium.
A series of 12 100 ml flasks containing 50 ml of TM medium (with 0.4 g of sulfur powder), was inoculated with 1 ml of mixed culture containing 10^8 cells/ml.
• 3 control flasks containing TM and sulfur, with NaCl (0.16 M, 0.33 M, 0.56 M); • 3 flasks with TM, sulfur and Na2SO4 (0.12 M, 0.24 M, 0.56 M); • 3 flasks with TM, sulfur and KCl (0.13 M, 0.26 M, 0.56 M); • 3 flasks with TM, sulfur and KNO3 (0.09 M, 0.19 M, 0.56 M) The data collected are listed in Table 6.

[2] = system: Thiobacilli (consortium); assay: as above; type: cell-based, Thiobacillus; settings: salt 0.5 M, day 28
[3] = system: Thiobacilli (microbial consortium); assay: Comparison of NaCl and SLS, TM medium with sulfur flowers and inoculated mixed culture (Example 6); type: cell-based, Thiobacillus; settings: for O.D. / p.H.: C: 20 mg/l of SLS
Procedure: The experiment was aimed at comparing the action of SLS, a known bacteriostatic for Thiobacilli, and Sodium Chloride on the same microbial consortium.
A series of 6 100 ml flasks containing 50 ml of TM medium (with 0.4 g of sulfur flowers), were inoculated with 1 ml of mixed culture containing 10^8 cells/ml.
• A—2 control flasks containing TM and sulfur, without NaCl; • B—2 flasks with TM, sulfur and 33 g/l of NaCl; • C—2 flasks with TM, sulfur and 20 mg/l of SLS (concentration used in literature as bacteriostatic) The pH values and the bacterial growth were measured over a period of 34 days, by means of the increase in the absorbance.

[4] = system: Thiobacilli; settings: bacteriostatic product; literature (Clark et al. 1998); cited from earlier work

Which PH ([1]; salt 0.13 M, day 0) does the source give for `[Cl-].[K+]` [KCl] here?
Its PH is 6.0.

What about the PH ([1]; salt 0.13 M, day 2) of the same compound?
The PH was 6.0.

What about the PH ([1]; salt 0.13 M, day 6) of the same compound?
Its PH is 4.5.

What about the PH ([1]; salt 0.13 M, day 9) of the same compound?
The PH was 4.0.

And the PH ([1]; salt 0.13 M, day 12)?
The PH was 3.5.

And the PH ([1]; salt 0.13 M, day 15)?
Its PH is 3.0.

And the PH ([1]; salt 0.13 M, day 18)?
The PH was 3.0.

And the PH ([1]; salt 0.13 M, day 20)?
The PH was 3.0.

And the PH ([1]; salt 0.13 M, day 24)?
Its PH is 2.5.

What about the PH ([1]; salt 0.13 M, day 28) of the same compound?
Its PH is 2.5.

And the PH ([1]; salt 0.13 M, day 30)?
The PH was 2.4.

What about the PH ([1]; salt 0.13 M, day 40) of the same compound?
The PH was 1.5.

What about the PH ([1]; salt 0.26 M, day 0) of the same compound?
The PH was 6.0.

And the PH ([1]; salt 0.26 M, day 2)?
Its PH is 6.0.

And the PH ([1]; salt 0.26 M, day 6)?
Its PH is 5.5.

What about the PH ([1]; salt 0.26 M, day 9) of the same compound?
Its PH is 5.5.

And the PH ([1]; salt 0.26 M, day 12)?
The PH was 5.5.

And the PH ([1]; salt 0.26 M, day 15)?
The PH was 5.5.

And the PH ([1]; salt 0.26 M, day 18)?
Its PH is 5.2.

What about the PH ([1]; salt 0.26 M, day 20) of the same compound?
Its PH is 5.2.

What about the PH ([1]; salt 0.26 M, day 24) of the same compound?
Its PH is 5.0.

What about the PH ([1]; salt 0.26 M, day 28) of the same compound?
The PH was 5.0.

And the PH ([1]; salt 0.26 M, day 30)?
Its PH is 5.0.

What about the PH ([1]; salt 0.26 M, day 40) of the same compound?
The PH was 4.9.

And the PH ([1]; salt 0.56 M, day 0)?
The PH was 6.0.

What about the PH ([1]; salt 0.56 M, day 2) of the same compound?
Its PH is 6.0.

And the PH ([1]; salt 0.56 M, day 6)?
Its PH is 6.0.

What about the PH ([1]; salt 0.56 M, day 9) of the same compound?
Its PH is 6.0.

What about the PH ([1]; salt 0.56 M, day 12) of the same compound?
The PH was 6.0.

And the PH ([1]; salt 0.56 M, day 15)?
The PH was 6.0.

What about the PH ([1]; salt 0.56 M, day 18) of the same compound?
The PH was 6.0.

And the PH ([1]; salt 0.56 M, day 20)?
The PH was 6.0.

What about the PH ([1]; salt 0.56 M, day 24) of the same compound?
Its PH is 6.0.

And the PH ([1]; salt 0.56 M, day 28)?
The PH was 6.0.

And the PH ([1]; salt 0.56 M, day 30)?
Its PH is 6.0.

And the PH ([1]; salt 0.56 M, day 40)?
Its PH is 5.8.

Which PH ([1]; salt 0.09 M, day 0) does the source give for `O=[N+]([O-])[O-].[K+]` [KNO3] here?
The PH was 6.0.

What about the PH ([1]; salt 0.09 M, day 2) of the same compound?
The PH was 6.0.

What about the PH ([1]; salt 0.09 M, day 6) of the same compound?
The PH was 3.8.

What about the PH ([1]; salt 0.09 M, day 9) of the same compound?
The PH was 3.0.

And the PH ([1]; salt 0.09 M, day 12)?
The PH was 3.0.

And the PH ([1]; salt 0.09 M, day 15)?
The PH was 3.0.

And the PH ([1]; salt 0.09 M, day 18)?
Its PH is 3.0.

And the PH ([1]; salt 0.09 M, day 20)?
Its PH is 3.0.

What about the PH ([1]; salt 0.09 M, day 24) of the same compound?
The PH was 3.0.

And the PH ([1]; salt 0.09 M, day 28)?
The PH was 3.0.

What about the PH ([1]; salt 0.09 M, day 30) of the same compound?
The PH was 3.0.

What about the PH ([1]; salt 0.09 M, day 40) of the same compound?
Its PH is 3.0.

What about the PH ([1]; salt 0.19 M, day 0) of the same compound?
The PH was 6.0.

What about the PH ([1]; salt 0.19 M, day 2) of the same compound?
The PH was 6.0.

And the PH ([1]; salt 0.19 M, day 6)?
The PH was 4.8.

What about the PH ([1]; salt 0.19 M, day 9) of the same compound?
Its PH is 4.0.

And the PH ([1]; salt 0.19 M, day 12)?
Its PH is 4.0.

And the PH ([1]; salt 0.19 M, day 15)?
The PH was 4.0.

And the PH ([1]; salt 0.19 M, day 18)?
Its PH is 4.0.

And the PH ([1]; salt 0.19 M, day 20)?
Its PH is 4.0.

What about the PH ([1]; salt 0.19 M, day 24) of the same compound?
The PH was 4.0.

And the PH ([1]; salt 0.19 M, day 28)?
Its PH is 4.0.

And the PH ([1]; salt 0.19 M, day 30)?
The PH was 3.3.

What about the PH ([1]; salt 0.19 M, day 40) of the same compound?
The PH was 3.2.

What about the PH ([1]; salt 0.5 M, day 0) of the same compound?
Its PH is 6.0.

What about the PH ([1]; salt 0.5 M, day 2) of the same compound?
Its PH is 6.0.

What about the PH ([1]; salt 0.5 M, day 6) of the same compound?
The PH was 6.0.

And the PH ([1]; salt 0.5 M, day 9)?
Its PH is 6.0.

What about the PH ([1]; salt 0.5 M, day 12) of the same compound?
The PH was 6.0.

And the PH ([1]; salt 0.5 M, day 15)?
Its PH is 6.0.

And the PH ([1]; salt 0.5 M, day 18)?
Its PH is 6.0.

And the PH ([1]; salt 0.5 M, day 20)?
The PH was 6.0.

And the PH ([1]; salt 0.5 M, day 24)?
Its PH is 6.0.

What about the PH ([1]; salt 0.5 M, day 30) of the same compound?
Its PH is 6.0.

What about the PH ([1]; salt 0.5 M, day 40) of the same compound?
The PH was 5.8.

And the PH [2]?
The PH was 6.0.

With `O=S(=O)([O-])[O-].[Na+].[Na+]` [Na2SO4] as the compound, how does the PH ([1]; salt 0.12 M, day 0) read?
The PH was 6.0.

And the PH ([1]; salt 0.12 M, day 2)?
Its PH is 6.0.

What about the PH ([1]; salt 0.12 M, day 6) of the same compound?
Its PH is 3.5.

And the PH ([1]; salt 0.12 M, day 9)?
The PH was 2.8.

What about the PH ([1]; salt 0.12 M, day 12) of the same compound?
Its PH is 2.8.

And the PH ([1]; salt 0.12 M, day 15)?
The PH was 2.8.

And the PH ([1]; salt 0.12 M, day 18)?
Its PH is 2.5.

And the PH ([1]; salt 0.12 M, day 20)?
The PH was 1.8.

What about the PH ([1]; salt 0.12 M, day 24) of the same compound?
Its PH is 1.8.

What about the PH ([1]; salt 0.12 M, day 28) of the same compound?
The PH was 1.6.

What about the PH ([1]; salt 0.12 M, day 30) of the same compound?
The PH was 1.6.

What about the PH ([1]; salt 0.12 M, day 40) of the same compound?
Its PH is 1.4.

What about the PH ([1]; salt 0.24 M, day 0) of the same compound?
The PH was 6.0.

What about the PH ([1]; salt 0.24 M, day 2) of the same compound?
The PH was 6.0.

And the PH ([1]; salt 0.24 M, day 6)?
Its PH is 4.5.

What about the PH ([1]; salt 0.24 M, day 9) of the same compound?
The PH was 4.0.

And the PH ([1]; salt 0.24 M, day 12)?
Its PH is 3.5.

And the PH ([1]; salt 0.24 M, day 15)?
Its PH is 3.0.

And the PH ([1]; salt 0.24 M, day 18)?
The PH was 2.8.

What about the PH ([1]; salt 0.24 M, day 20) of the same compound?
The PH was 2.0.

What about the PH ([1]; salt 0.24 M, day 24) of the same compound?
Its PH is 2.0.

What about the PH ([1]; salt 0.24 M, day 28) of the same compound?
Its PH is 1.7.

And the PH ([1]; salt 0.24 M, day 30)?
Its PH is 1.5.

What about the PH ([1]; salt 0.24 M, day 40) of the same compound?
Its PH is 1.5.

What about the PH ([1]; salt 0.56 M, day 0) of the same compound?
The PH was 6.0.

What about the PH ([1]; salt 0.56 M, day 2) of the same compound?
Its PH is 6.0.

And the PH ([1]; salt 0.56 M, day 6)?
Its PH is 6.0.

And the PH ([1]; salt 0.56 M, day 9)?
The PH was 6.0.

What about the PH ([1]; salt 0.56 M, day 12) of the same compound?
The PH was 6.0.

And the PH ([1]; salt 0.56 M, day 15)?
The PH was 5.9.

What about the PH ([1]; salt 0.56 M, day 18) of the same compound?
The PH was 5.9.

And the PH ([1]; salt 0.56 M, day 20)?
The PH was 5.9.

And the PH ([1]; salt 0.56 M, day 24)?
Its PH is 5.9.

And the PH ([1]; salt 0.56 M, day 28)?
Its PH is 5.9.

What about the PH ([1]; salt 0.56 M, day 30) of the same compound?
The PH was 5.9.

And the PH ([1]; salt 0.56 M, day 40)?
The PH was 5.8.

With `CCCCCCCCCCCCOS(=O)(=O)[O-].[Na+]` [SLS, Sodium Lauryl Sulfate, reference compound] as the compound, how does the “inhibition of the acidification of water in contact with elemental sulfur” value ([3]; 33 g/l NaCl, 20 mg/l SLS) read?
Its value is “capable of inhibiting the acidification”.

And the O.D. ([3]; day 0)?
Its O.D. is 0.014.

And the p.H. ([3]; day 0)?
The p.H. was 6.0.

What about the O.D. ([3]; day 3) of the same compound?
The O.D. was 0.013.

What about the p.H. ([3]; day 3) of the same compound?
Its p.H. is 4.5.

And the O.D. ([3]; day 5)?
The O.D. was 0.042.

And the p.H. ([3]; day 5)?
The p.H. was 4.5.

And the O.D. ([3]; day 8)?
Its O.D. is 0.073.

What about the p.H. ([3]; day 8) of the same compound?
Its p.H. is 4.0.

And the O.D. ([3]; day 11)?
Its O.D. is 0.067.

What about the p.H. ([3]; day 11) of the same compound?
The p.H. was 4.0.

What about the O.D. ([3]; day 16) of the same compound?
The O.D. was 0.098.

And the p.H. ([3]; day 16)?
Its p.H. is 3.8.

What about the O.D. ([3]; day 21) of the same compound?
Its O.D. is 0.080.

What about the p.H. ([3]; day 21) of the same compound?
The p.H. was 3.8.

What about the O.D. ([3]; day 23) of the same compound?
The O.D. was 0.035.

And the p.H. ([3]; day 23)?
The p.H. was 3.8.

And the O.D. ([3]; day 28)?
The O.D. was 0.033.

And the p.H. ([3]; day 28)?
Its p.H. is 3.2.

And the O.D. ([3]; day 31)?
The O.D. was 0.020.

What about the p.H. ([3]; day 31) of the same compound?
Its p.H. is 3.2.

And the “reduction of corrosion of metallic containers used for transporting or containing sulfur” value [4]?
Its value is “effective for reducing the corrosion”.
